Ends that are not written are not given here. Peptide text beside a SMILES is read from it. * marks the point of attachment. Biotin = O=C1N[C@H]2[C@H](CS[C@H]2CCCCC(=O)*)N1
Columns and labels:
[1] = tested on: 3T3-L1 Adipocytes; experiment: Free fatty acid levels in cultured mouse 3T3-L1 adipocytes, isoproterenol stimulated (Example 17); type: cell-based; details: isoproterenol 1 nM
Experimental: Mouse 3T3-L1 cells were seeded at a density between 1,000-20,000 cells per well on 96-well, 48-well, or 24-well plates in Pre-adipocyte Medium (Zen-Bio, Durham, N.C.) and grown to confluence at 37° C. in a humidified atmosphere of 5% CO2/95% air. Two days after confluence, cells were placed in Adipocyte Differentiation Medium (Zen-Bio, Durham, N.C.) and cultured for three additional days at 37° C. in a humidified atmosphere of 5% CO2/95% air. The culture media was then replaced with Adipocyte Maintenance Medium (Zen-Bio) and the cells were maintained for an additional 9-14 days at 37° C. in a humidified atmosphere of 5% CO2/95% air with partial medium replacement every other day. Following 12-17 days of differentiation, test peptides were added at a final concentration of 25-50 μM and incubated for 18-20 hours in Adipocyte Maintenance Medium at 37° C. in a humidified atmosphere of 5% CO2/95%. After the media incubation, media was removed and exchanged with Assay Buffer (Zen-Bio) containing isoproterenol (1 nM) (added to all samples except untreated controls) and the test peptides. Cells were incubated for a further 3 hours at 37° C. in a humidified atmosphere of 5% CO2/95%. Free fatty acid concentrations in the media were determined using a Free Fatty Acid Assay Kit (Zen-Bio) according to the manufacturer's instructions using a plate reader (540 nm).
Absorbance values were corrected for untreated background and expressed relative to isoproterenol treated cells. Treatment with isoproterenol (1 nM) alone was used as the free fatty acid level stimulatory control. The relative standard deviation of the isoproterenol control was <10%. […] Free fatty acid levels for insulin (100 nM) treatment were <5% of the isoproterenol control value.

[2] = tested on: 3T3-L1 Adipocytes; experiment: Free fatty acid levels in cultured mouse 3T3-L1 adipocytes, forskolin stimulated (Example 3); type: cell-based; details: test peptides 25 μM; forskolin 1 μM
Experimental: Mouse 3T3-L1 cells were seeded at 1,000-20,000 cells per well on 96-well, 48-well, or 24-well plates in Pre-adipocyte Medium (Zen-Bio, Durham, N.C.) and grown to confluence at 37° C. in a humidified atmosphere of 5% CO2/95% air. Two days after confluence, cells were placed in Adipocyte Differentiation Medium (Zen-Bio, Durham, N.C.) and cultured for three additional days at 37° C. in a humidified atmosphere of 5% CO2/95% air. The culture media was then replaced with Adipocyte Maintenance Medium (Zen-Bio) and the cells were maintained for an additional 9-14 days at 37° C. in a humidified atmosphere of 5% CO2/95% air with partial medium replacement every other day. Following 12-17 days of differentiation, test peptides were added at a final concentration of 25 μM and incubated for 18-20 hours in Adipocyte Maintenance Medium at 37° C. in a humidified atmosphere of 5% CO2/95%. After 18-20 hours, the media was exchanged with fresh Adipocyte Maintenance Medium containing test peptides and incubated for 1 h at 37° C. in a humidified atmosphere of 5% CO2/95%. After 1 h media was exchanged with Assay Buffer (Zen-Bio) containing forskolin (1 μM) (added to all samples except untreated controls) and test peptides. Cells were incubated for a further 3 hours at 37° C. in a humidified atmosphere of 5% CO2/95%. Free fatty acid concentrations in the media were determined using a Free Fatty Acid Assay Kit (Zen-Bio) according to the manufacturer's instructions using a plate reader (540 nm). Absorbance values were corrected for untreated background and expressed relative to forskolin treated cells. Treatment with forskolin (1 μM) alone was used as the free fatty acid level stimulatory control. The relative standard deviation of the forskolin control was <10%. […] Free fatty acid levels for insulin (100 nM) treatment were <9% of the forskolin control value.

[3] = Stability in mouse plasma, peptides 100 uM (Example 14); type: in vitro ADME; details: mouse plasma 37° C., peptide 100 uM
Experimental: Peptides (100 uM) were incubated in pooled mouse plasma at 37° C. and samples were removed and immediately analyzed for the concentration of intact peptide by LC/MS/MS over the course of 3 hours. The percent of peptide remaining in plasma at each time point was calculated relative to the initial peak area (Table 12).

[4] = tested on: Human Primary Adipocytes; experiment: Free fatty acid levels in cultured human primary adipocytes, forskolin stimulated (Example 5); type: cell-based; details: test peptides 25 μM; forskolin 1 μM
Experimental: Human primary adipocytes were seeded at 5,000-100,000 cells per well on 96-well, 48-well, or 24-well plate in Pre-adipocyte Medium (Zen-Bio, Durham, N.C.) and grown to confluence at 37° C. in a humidified atmosphere of 5% CO2/95% air. Two days after confluence, cells were placed in Adipocyte Differentiation Medium (Zen-Bio, Durham, N.C.) and cultured for three additional days at 37° C. in a humidified atmosphere of 5% CO2/95% air. The culture media was then replaced with Adipocyte Maintenance Medium (Zen-Bio) and the cells were maintained for an additional 11-21 days at 37° C. in a humidified atmosphere of 5% CO2/95% air with partial medium replacement every other day. Following 14-24 days of differentiation, test peptides were added at a final concentration of 25 μM and incubated for 18-20 hours in Adipocyte Maintenance Medium at 37° C. in a humidified atmosphere of 5% CO2/95%. After 18-20 hours, the media was exchanged with fresh Adipocyte Maintenance Medium containing test peptides and incubated for 1 h at 37° C. in a humidified atmosphere of 5% CO2/95%. After 1 h media was exchanged with Assay Buffer (Zen-Bio) containing forskolin (1 μM) (added to all samples except untreated controls) and test peptides. Cells were incubated for a further 3 hours at 37° C. in a humidified atmosphere of 5% CO2/95%. Free fatty acid concentrations in the media were determined using a Free Fatty Acid Assay Kit (Zen-Bio) according to the manufacturer's instructions using a plate reader (540 nm). Absorbance values were corrected for untreated background and expressed relative to forskolin treated cells. Treatment with forskolin (1 μM) alone was used as the free fatty acid level stimulatory control. The relative standard deviation of the forskolin control was <20%. […] Free fatty acid levels for insulin (100 nM) treatment were <8% of the forskolin control value.

[5] = tested on: 3T3-L1 Adipocytes; experiment: Free fatty acid levels in cultured mouse 3T3-L1 adipocytes, isoproterenol stimulated (Example 2); type: cell-based; details: test peptides 25 μM; isoproterenol 1 nM
Procedure, shortened: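 Release of free fatty acids, read at 540 nm, was stimulated with 1 nM isoproterenol for 3 h in mouse 3T3-L1 adipocytes (12–17 days of differentiation). Cells were pre-exposed to 25 μM peptide for 18–20 h plus 1 h, with peptide kept in during stimulation. Values are background-subtracted and normalised to isoproterenol alone.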

[6] = tested on: Diet Induced Obese (DIO) mice; experiment: Body weight, blood glucose and fat mass in Diet Induced Obese mice, 10 days (Example 6); type: in vivo, Male C57BL/6 mice; details: male DIO mice; 10 days twice daily intraperitoneal 15 mg/kg; N = 8; mean
Experimental: Animals were randomized to treatment groups based on blood glucose levels and body weight. The peptides of the invention were administered to two groups of male DIG mice once or twice daily by subcutaneous or intraperitoneal injection at a dose of 15 mg/kg/dose for 10 days (N=8 animals per treatment group). An additional group of male DIG mice (n=8) received vehicle (water or saline) alone. Body weight, blood glucose levels and food intake were monitored. Body mass distribution (fat vs lean) was determined by quantitative whole body NMR prior to dosing and at the end of dosing.

Compound	Free Fatty Acid Levels in 3T3-L1 Adipocytes Expressed as a Percent of Isoproterenol Control: Percent of Control Value ([1]; Peptide Concentration 50 μM)	Free Fatty Acid Levels in 3T3-L1 Adipocytes Expressed as a Percent of Isoproterenol Control: Percent of Control Value ([1]; Peptide Concentration 25 μM)	other results
369 (PEG600-KEMNYIFYPR) [compound 369]	87.5%	–	–
H-QEMNYIFYPR-OH [compound 366]	–	82.0%	–
H-IFYPR-OH [compound 360]	–	94.6%	–
H-RWQEMNYIFYPR-NH2 [compound 354]	–	92.3%	–
372 (PEG600-KWQEMNYIFYP) [compound 372]	168.0%	–	–
371 (PEG600-KRWQEMNYIFYP) [compound 371]	118.0%	–	–
H-RWQEMGYIFYPRQLR-OH [compound 217]	–	–	Free Fatty Acid Levels in 3T3-L1 Adipocytes Expressed as a Percent of Forskolin Control: Percent of Control Value [2]: 40.3%; % Remaining at Each Time Point: 0 min ([3]; 0 min): 100%; remaining at 0.25 h, 100 uM ([3]; pooled mouse plasma, 15 min, read-out: % Remaining at Each Time Point: 15 min): 71%; remaining at 0.5 h, 100 uM ([3]; pooled mouse plasma, 30 min, read-out: % Remaining at Each Time Point: 30 min): 33.2%; remaining at 1 h, 100 uM ([3]; pooled mouse plasma, 60 min, read-out: % Remaining at Each Time Point: 60 min): 53.6%; remaining at 2 h, 100 uM ([3]; pooled mouse plasma, 120 min, read-out: % Remaining at Each Time Point: 120 min): 22.8%; remaining at 3 h, 100 uM ([3]; pooled mouse plasma, 180 min, read-out: % Remaining at Each Time Point: 180 min): 14.1%; Free Fatty Acid Levels in Human Primary Adipocytes Expressed as a Percent of Forskolin Control: Percent of Control Value [4]: 108%; Free Fatty Acid Levels in 3T3-L1 Adipocytes Expressed as a Percent of Isoproterenol Control: Percent of Control Value [5]: 27.3%; Difference from Vehicle Control: Decrease from Baseline in Blood Glucose [6]: -9.75 mg/dL; Difference from Vehicle Control: Decrease from Baseline in Body Weight (%) [6]: −2.54%; Difference from Vehicle Control: Decrease from Baseline in Fat Mass [6]: -0.89 g
H-YIFYPR-OH [compound 296]	–	85.0%	–
359 (RWQEMNYIFYPRK-biotin; not fully specified (residue 13); printed as RWQEMNYIFYPRK-(Biotin)) [compound 359]	–	34.8%	–
H-WQEMNYIFY-OH [compound 365]	–	85.6%	–
370 (PEG600-KWQEMNYIFYPR) [compound 370]	129.0%	–	–
CC[C@H](C)[C@H](NC(=O)[C@H](Cc1ccc(O)cc1)NC(=O)[C@H](CC(N)=O)NC(=O)[C@H](CCSC)NC(=O)[C@H](CCC(=O)O)NC(=O)[C@H](CCC(N)=O)NC(=O)[C@H](Cc1c[nH]c2ccccc12)NC(=O)[C@@H](N)CCCNC(=N)N)C(=O)N[C@@H](Cc1ccccc1)C(=O)N[C@@H](Cc1ccc(O)cc1)C(=O)N1CCC[C@H]1C(=O)N[C@@H](CCCNC(=N)N)C(=O)N[C@@H](CCCNC(=N)N)C(=O)N[C@H](C)C(=O)O [compound 356] (HELM PEPTIDE1{R.W.Q.E.M.N.Y.I.F.Y.P.R.R.[dA]}$$$$V2.0)	–	100.6%	–
H-QEMNYIFYP-OH [compound 363]	–	131.5%	–
H-EMNYIFYP-OH [compound 362]	–	92.5%	–
CC[C@H](C)[C@H](NC(=O)[C@H](Cc1ccc(O)cc1)NC(=O)[C@H](CC(N)=O)NC(=O)[C@H](CCSC)NC(=O)[C@H](CCC(=O)O)NC(=O)[C@H](CCC(N)=O)NC(=O)[C@H](Cc1c[nH]c2ccccc12)NC(=O)[C@@H](N)CCCNC(=N)N)C(=O)N[C@@H](Cc1ccccc1)C(=O)N[C@@H](Cc1ccc(O)cc1)C(=O)N1CCC[C@H]1C(=O)N[C@@H](CCCNC(=N)N)C(=O)N[C@H](C)C(=O)O [compound 355] (HELM PEPTIDE1{R.W.Q.E.M.N.Y.I.F.Y.P.R.[dA]}$$$$V2.0)	–	97.8%	–
367 (Biotin-KRWQEMNYIFYPR) [compound 367]	59.0%	–	–
368 (PEG600-KNYIFYPR) [compound 368]	70.0%	–	–
H-RWQEM-OH [compound 351]	–	100.1%	–
358 (Biotin-RWQEMNYIFYPR) [compound 358]	–	60.8%	–

From patent US11753445B2, “Therapeutic peptides” (COHBAR, INC., priority 2016, dated 2023)
